Measurements taken from PubChem BioAssay AID1963443 (Molecular Pharmacology Branch, DTP, NCI, 2024).
Values joined by “and” are separate entries in the source; they are usually repeats but may differ in a detail not shown here. Equal entries are not always repeated.

System: MDA-MB-231 complex spheroids, growth inhibition
Experiment: Anticancer human tumor MDA-MB-231 cell line growth inhibition [Asc];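 further: spheroids exposed to compounds for 7 days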
Conditions: for viability, T/C: stronger effect = lower value
Procedure: Multicellular complex tumor spheroid response to apoptosis pathway targeting inhibitors Alrizomadlin, Pelcitoclax, and Dasminapant in combination with a variety of drugs and investigational agents in selected tumor cell lines
The MDM2 inhibitor alrizomadlin, the Bcl-2/Bcl-xL inhibitor pelcitoclax, and the IAPs inhibitor dasminapant were evaluated both individually and in combination with standard of care and investigational anticancer small molecules within a complex spheroid model of solid tumors. . Complex spheroids include a stromal component modeled by human endothelial cells (HUVEC) and fibroblasts modeled by human mesenchymal stem cells (MSCs). The concentration ranges selected for each drug and investigational agent were based upon clinically achievable concentrations if the clinical Cmax of the agent was known.
Compounds. The drugs and investigational agents: alrizomadlin (APG-115; NSC831270), pelcitoclax (APG-1252; NSC835773), dasminapant (APG-1387;NSC834197), TAK-243 (NSC785004), copanlisib (NSC809693), olaparib (NSC753686), talazoparib (NSC767125), cobimetinib (NSC 768068), eltanexor (KPT-8602, NSC 794443), abemaciclib (NSC 768073), sotorasib (NSC818433), adagrasib (NSC 831453), MRTX-1133 (NSC 836407), Iadademestat (ORY1001, NSC 806812), and RMC-4630 (NSC839698), were obtained from the NCI Developmental Therapeutics Program Chemical Repository. The FDA-approved anticancer drug set is available from the Developmental Therapeutics Program at https://dtp.cancer.gov/organization/dscb/obtaining/available plates.htm. […] The stock solutions were prepared in dimethyl sulfoxide (DMSO, Sigma-Aldrich, St. Louis, MO, cat. D2650) at 800-fold the tested concentration and stored at -70 degrees C prior to their use. All drugs and investigational agents were tested over a range starting from a high concentration at or near the clinical Cmax and decreasing in half-log increments. If the clinical Cmax for an agent had not been determined, the highest concentration tested was 10 microM.
The patient-derived cancer (PDC) cell lines include five colon adenocarcinomas: 186277-243-T-J2-PDC, 616215-338-R-J1-PDC, 439559-082-T-J2-PDC, 463943-066-T-J2-PDC, and 519858-162-T-J1-PDC; three pancreatic carcinomas: 323965-272-R-J2-PDC, 521955-158-R6-J3-PDC, and 521955-158-R2-J5-PDC; two uterine sarcomas: 327498-152-R-J2-PDC and 993429-296-R-J1-PDC; two rhabdomyosarcomas: 755483-174-R-J1-PDC and 772245-204-R-J1-PDC; two soft tissue sarcomas: 126254-015-R-J1-PDC and 494315-158-R-J1-PDC; two malignant fibrous histiocytomas: 317291-083-R-J1-PDC and 596521-263-R-J1-PDC; two breast carcinomas: 171881-019-R-J1-PDC and 885512-296-R-J2-PDC; and one ovarian carcinoma: 6556581-035-R-J-PDC were obtained from the NCI PDMR, (https://pdmr.cancer.gov). The established cell lines HSSY-2 synovial sarcoma (RRID:CVCL 8719), SYO-1 synovial sarcoma (RRID:CVCL_7146), MPNST malignant peripheral neural sheath tumor were obtained from the Sloan Kettering Institute. The following established cell lines were purchased from the American Type Culture Collection (ATCC, Manassas, VA), Sor the received from the NCI repository:, PANC-1 pancreatic carcinoma (CRL-1469, RRID:CVCL_0480), OVCAR-5 ovarian carcinoma (RRID:CVCL_1628), OVCAR-8 ovarian carcinoma (RRID:CVCL_1629), , MCF-7 breast carcinoma (CRL-12584, RRID:CVCL_0031), MDA-MB-231 breast carcinoma (CRL-12532, RRID:CVCL_0062), NCI-H1876 small cell lung carcinoma (CRL-5902, RRID:CVCL_1503), NCI-H510A small cell lung carcinoma (HTB-184, RRID:CVCL_1565), NCI-H1417 (CRL-5869, RRID:CVCL_1469), and NCI-H196 small cell lung carcinoma (CRL-5823, RRID:CVCL_1509). Dr. Peter Houghton (Greehey Children's Cancer Research Institute, University of Texas Health Science Center, San Antonio, TX) provided Rh-18 rhabdomyosarcoma (RRID:CVCL_1659). Pooled donor human umbilical vein endothelial cells (HUVEC, Lonza, cat. CC-2519) and human mesenchymal stem cells (hMSC, Lonza, cat. PT-2501) were purchased from Lonza (Walkersville, MD).
Cell Culture. […]

[1] = curve of first compound, second compound 0.03 µM
[2] = curve of first compound, second compound 0.0949 µM
[3] = curve of first compound, second compound 0.3 µM
[4] = curve of first compound, second compound 0.949 µM
[5] = curve of first compound, second compound 3 µM
[6] = second compound 0.03 µM, first compound 0.00316 µM
[7] = second compound 0.03 µM, first compound 0.01 µM
[8] = second compound 0.03 µM, first compound 0.0316 µM
[9] = second compound 0.03 µM, first compound 0.1 µM
[10] = second compound 0.0949 µM, first compound 0.00316 µM
[11] = second compound 0.0949 µM, first compound 0.01 µM
[12] = second compound 0.0949 µM, first compound 0.0316 µM
[13] = second compound 0.0949 µM, first compound 0.1 µM
[14] = second compound 0.3 µM, first compound 0.00316 µM
[15] = second compound 0.3 µM, first compound 0.01 µM
[16] = second compound 0.3 µM, first compound 0.0316 µM
[17] = second compound 0.3 µM, first compound 0.1 µM
[18] = second compound 0.949 µM, first compound 0.00316 µM
[19] = second compound 0.949 µM, first compound 0.01 µM
[20] = second compound 0.949 µM, first compound 0.0316 µM
[21] = second compound 0.949 µM, first compound 0.1 µM
[22] = second compound 3 µM, first compound 0.00316 µM
[23] = second compound 3 µM, first compound 0.01 µM
[24] = second compound 3 µM, first compound 0.0316 µM
[25] = second compound 3 µM, first compound 0.1 µM

`O=C(c1ccc(F)c(F)c1Nc1ccc(I)cc1F)N1CC(O)([C@@H]2CCCCN2)C1` + CCN1C(C(=O)NC23CCC(C(=O)O)(CC2)CC3)C(c2cccc(Cl)c2F)C2(C(=O)Nc3cc(Cl)ccc32)C12CCCCC2 was tested, and the IC50 [1] was 56.2 nM, the IC50 [2] was 56.9 nM and the IC50 [3] was 45.2 nM. The IC50 [4] was 36 nM, the IC50 [5] was 14.5 nM and the viability, T/C [6] was 81.9%. It also gave a viability, T/C [7] of 65.3%, a viability, T/C [8] of 53.4% and a viability, T/C [9] of 47.6%. For the same compound, the viability, T/C (second compound 0.03 µM, first compound 0.316 µM) was 30.3%, the viability, T/C (second compound 0.03 µM, first compound 1 µM) was 5.13% and the viability, T/C [10] was 84.8%. It also gave a viability, T/C [11] of 64.5%, a viability, T/C [12] of 54.1% and a viability, T/C [13] of 47.6%. It also gave a viability, T/C (second compound 0.0949 µM, first compound 0.316 µM) of 30.6%, a viability, T/C (second compound 0.0949 µM, first compound 1 µM) of 4.62% and a viability, T/C [14] of 95.7%. The viability, T/C [15] was 63.6%, the viability, T/C [16] was 53.2% and the viability, T/C [17] was 44.4%. It also gave a viability, T/C (second compound 0.3 µM, first compound 0.316 µM) of 27.3%, a viability, T/C (second compound 0.3 µM, first compound 1 µM) of 4.93% and a viability, T/C [18] of 86%. It also gave a viability, T/C [19] of 58.5%, a viability, T/C [20] of 52.3% and a viability, T/C [21] of 40.3%. For the same compound, the viability, T/C (second compound 0.949 µM, first compound 0.316 µM) was 22.6%, the viability, T/C (second compound 0.949 µM, first compound 1 µM) was 4.93% and the viability, T/C [22] was 70.9%. It also gave a viability, T/C [23] of 48.6%, a viability, T/C [24] of 43% and a viability, T/C [25] of 31.7%. For the same compound, the viability, T/C (second compound 3 µM, first compound 0.316 µM) was 11.5% and the viability, T/C (second compound 3 µM, first compound 1 µM) was 4.76%.
With `Cn1ncnc1[C@H]1c2n[nH]c(=O)c3cc(F)cc(c23)N[C@@H]1c1ccc(F)cc1` the viability, T/C (compound 0.000316 µM) was 101% and 114% and 108%, the viability, T/C (compound 0.001 µM) was 100% and 110% and 86.8% and the viability, T/C (compound 0.00316 µM) was 92.4% and 90.3% and 77.6%. For the same compound, the viability, T/C (compound 0.01 µM) was 91.5% and 85.7% and 87.9%, the viability, T/C (compound 0.0316 µM) was 89.1% and 103% and 89.5% and the viability, T/C (compound 0.1 µM) was 84.4% and 100% and 74.3%. For the same compound, the IC50 (curve of compound) was over 100 nM.
`C=C(F)C(=O)N1CCN(c2nc(OCC3CCCN3C)nc3c2CCN(c2cccc4cccc(Cl)c24)C3)CC1CC#N` (stereo unspecified) was tested, and the viability, T/C (compound 0.0316 µM) was 101% (2×) and 104%, the viability, T/C (compound 0.1 µM) was 103% and 99.7% and 93.1% and the viability, T/C (compound 0.316 µM) was 103% and 98.3% and 110%. For the same compound, the viability, T/C (compound 1 µM) was 101% and 94.9% and 103%, the viability, T/C (compound 3.16 µM) was 54.9% and 51.6% and 77.3% and the viability, T/C (compound 10 µM) was 0.35% and 0.45% and 1.25%. For the same compound, the IC50 (curve of compound) was 3510 nM and 3280 nM and 4780 nM.
For `O=C(c1ccc(F)c(F)c1Nc1ccc(I)cc1F)N1CC(O)([C@@H]2CCCCN2)C1`, the viability, T/C (compound 0.00316 µM) was 86.9% and 79.8% and 88.6%, the viability, T/C (compound 0.01 µM) was 56.7% and 67.7% and 55.5% and the viability, T/C (compound 0.0316 µM) was 47.7% and 58.3% and 33.5%. For the same compound, the viability, T/C (compound 0.1 µM) was 43.8% and 50.7% and 21.9%, the viability, T/C (compound 0.316 µM) was 29.6% and 30.4% and 22.2% and the viability, T/C (compound 1 µM) was 2.86% and 5.09% and 7.27%. The IC50 (curve of compound) was 37 nM and 83.1 nM and 13.6 nM.
`Cn1ncnc1[C@H]1c2n[nH]c(=O)c3cc(F)cc(c23)N[C@@H]1c1ccc(F)cc1` + CCN1C(C(=O)NC23CCC(C(=O)O)(CC2)CC3)C(c2cccc(Cl)c2F)C2(C(=O)Nc3cc(Cl)ccc32)C12CCCCC2 showed an IC50 [1] of over 100 nM, an IC50 [2] of over 100 nM and an IC50 [3] of over 100 nM. It also gave an IC50 [4] of over 100 nM, an IC50 [5] of over 100 nM and a viability, T/C (second compound 0.03 µM, first compound 0.000316 µM) of 101%. For the same compound, the viability, T/C (second compound 0.03 µM, first compound 0.001 µM) was 96.3%, the viability, T/C [6] was 90.4% and the viability, T/C [7] was 96.2%. For the same compound, the viability, T/C [8] was 85%, the viability, T/C [9] was 86% and the viability, T/C (second compound 0.0949 µM, first compound 0.000316 µM) was 112%. For the same compound, the viability, T/C (second compound 0.0949 µM, first compound 0.001 µM) was 101%, the viability, T/C [10] was 93.6% and the viability, T/C [11] was 95.9%. For the same compound, the viability, T/C [12] was 90.2%, the viability, T/C [13] was 88.4% and the viability, T/C (second compound 0.3 µM, first compound 0.000316 µM) was 110%. It also gave a viability, T/C (second compound 0.3 µM, first compound 0.001 µM) of 110%, a viability, T/C [14] of 98.5% and a viability, T/C [15] of 102%. The viability, T/C [16] was 89.8%, the viability, T/C [17] was 85.4% and the viability, T/C (second compound 0.949 µM, first compound 0.000316 µM) was 108%. For the same compound, the viability, T/C (second compound 0.949 µM, first compound 0.001 µM) was 109%, the viability, T/C [18] was 102% and the viability, T/C [19] was 97.8%. It also gave a viability, T/C [20] of 93.6%, a viability, T/C [21] of 91.8% and a viability, T/C (second compound 3 µM, first compound 0.000316 µM) of 100%. For the same compound, the viability, T/C (second compound 3 µM, first compound 0.001 µM) was 99.4%, the viability, T/C [22] was 94.4% and the viability, T/C [23] was 91.8%. The viability, T/C [24] was 82% and the viability, T/C [25] was 87.8%.
